# Data as given in patent publication US12208080B2, “Compositions and methods for modulation of extracellular vesicle release and treatment of neurological disorders” (GEORGE MASON RESEARCH FOUNDATION, INC., priority 2018, dated 2025).
# Legend:
# [1] = tested on: HIV-1 89.6 infected 3D neurospheres; assay: RT-qPCR of viral RNA transcripts in infected 3D neurospheres; type: cell-based
# Method: FIGS. 22A-22D are graphs, gels, schematics, and images showing cannabidiol lowers viral transcripts in 3D neurospheres. A) Differential workflow of 3D neurospheres. B) Phase contrast microscopic images of three 3D neurospheres taken where scale bar=100 um. D) 3D neurospheres were treated±89.6 viral strain±cART (10 μM; Tenofovir, Emtricitabine, Lamuvidine, and Indinavir)±CBD titration (5 and 10 μM) and incubated for 7 days. RNA was isolated from the 3D neurospheres and supernatants, followed by RT-qPCR analysis for viral RNA transcripts TAR, TAR-gag, env. Student's t-test was used for statistical analysis, where *p-value≤0.05; **p-value≤0.01, ***p-value≤0.001.
# Neural Progenitor Cells (NPCs; Cat: ACS-5003; ATCC) were grown using STEMdiff™ Neural Progenitor Medium (STEMCELL Technologies™) and differentiated into 3D neurospheres (1×10^5 cells/well) using DMEM:F12 (Cat: 30-2006; ATCC)+Neural Progenitor Cell Dopaminergic Differentiation Kit (Cat: ACS-3004; ATCC) for an incubation period of 14 d. Inverted microscopy using Zen imaging software (Zeiss) was used to develop phase contrast images. Neurospheres were infected with HIV-1 89.6 dual-tropic strain (MOI: 10) and 10 μL of Infectin™ (Virongy, LLC) with a total volume of 200 μL, followed by 48 h incubation period. Neurospheres were then gently washed with 1×PBS±treated twice with 10 μM cocktail (Lamivudine, Tenofovir, Emtricitabine, Indinavir)±treatment (every other day) with a titration of CBD (5 and 10 μM) for a seven-day incubation period. Neurospheres were lysed in 100 μL lysis buffer and total lysates were run on a 4-20% Tris-Glycine SDS-PAGE, followed by western blot assessment. For RT-qPCR analysis, RNA was isolated from neurospheres, followed by RT-qPCR analysis.
# Next, the levels of intracellular viral RNA transcripts were assessed to determine the effects of CBD treatment on HIV-1 infected neurospheres. Prior to these experiments, the expression of relevant receptors in neurospheres were confirmed including Cannabinoid receptors CB1 and CB2, as well as the serotonin receptor 5-HT1A and the Vanilloid receptor which have been previously found to bind cannabinoids (FIG. 24). We then performed RT-qPCR analysis to quantify the expression of TAR, gag, and env.
# [2] = tested on: RNA polymerase II (Pol II) loading; assay: Chromatin immunoprecipitation of Pol II, qPCR for TAR DNA; type: cell-based; settings: U1; CBD 10 μM, Flavo 50 nM; 2-hour and 6-hour; FIG. 15C
# Method: FIGS. 15A-15C are graphs and gels showing cannabidiols lower intracellular viral transcription and downstream viral products. U1 cells (1×10^6) were treated with a titration of CBD (1, 5, 10 μM) and THC (1, 5, 10 μg/mL) every day for 5 days. A) Intracellular RNA was isolated and analyzed through RT-qPCR for HIV-1 viral transcripts TAR and env. Each bar represents an average of three independent replicates. B) U1 cells (2×10^6) were treated with a titration of CBD (1, 5, 10 μM) every day for 5 days. Cells pellets were lysed, run through SDS-PAGE, and western blotted for (p-)/NF-κB, autophagosomal markers (p63, LC3), EV biogenesis marker VPS4, viral markers (gp120, Nef, p24), and Actin. C) U1 cells (5×10^6) were treated±CBD (10 μM) and Flavopiridol hydrochloride (50 nM; indicated as Flavo) and incubated for the following time points: 0 minutes, 2 hours and 6 hours. Cells were cross-linked with 1% formaldehyde solution and ChIP-ed for IgG and Pol II. ChIP DNA samples were analyzed via qPCR for TAR and env. Student's t-test was used for statistical analysis, where *p-value≤0.05; **p-value≤0.01, ***p-value≤0.001. […]
# U1 monocytes were treated with CBD (10 μM) and Flavo (50 nM) for short periods (0, 2 and 6 hours) due to the fact that HIV-1 transcription activity is a rapid event that can be scored using chromatin immunoprecipitation (ChIP) assay for factor occupancy. […]
# [3] = CBD 10 μM with cART vs cART, 7 days, FIG. 22D lanes 3 vs 5
smiles,measurement,setting,value
"C=C(C)[C@@H]1CCC(C)=C[C@H]1c1c(O)cc(CCCCC)cc1O [CBD, 2-[1R-3-methyl-6R-(1-methylethenyl)-2-cyclohexen-1-yl]-5-pentyl-1,3-benzenediol]",TAR RNA,[1]; [3],signification reduction
same,env RNA,[1]; [3],signification reduction
same,gag RNA,[1]; [3],signification reduction
same,altering viral transcripts in neurospheres,[1]; lower concentrated CBD treatment (5 μM),low efficacy
same,Pol II-associated TAR DNA versus untreated,[2],statistically significant decreases
